Laboratory results published in ChEMBL document CHEMBL5131471, “Design, synthesis and mechanism studies of novel dual PARP1/BRD4 inhibitors against pancreatic cancer” (Eur J Med Chem, 2022).
Activity calls are given as the source filed them. No cut-off for these calls is given here.

Experiments:
[1] = Toxicity in nude mouse xenografted with human SW1990 cells assessed as lung damage at 15 mg/kg, ip administered for 28 days in presence of 45 mg/kg Olaparib by H and E staining based fluorescence microscopic analysis; assay type: organism-based; conditions: in vivo, 672 h, time 28 day
SW1990 [2] = experiment: Effect on CCND1 gene expression in human SW1990 cells at 4 uM by Q-PCR analysis; assay type: functional, cell-based
SW1990 [3] = experiment: Induction of DNA damage in human SW1990 cells assessed as increase in gammaH2AX expression at 1 uM incubated for 4 days in presence of Olaparib by DAPI staining based laser confocal microscopic analysis; assay type: functional, cell-based; conditions: time 4.0 day
SW1990 [4] = experiment: Downregulation of Ki67 expression in human SW1990 cells at 15 mg/kg, ip measured after 28 days by immuno histochemical staining based fluorescence microscopic analysis; assay type: functional, organism-based; conditions: time 28.0 day
SW1990 [5] = experiment: Induction of DNA damage in human SW1990 cells assessed as increase in gammaH2AX expression at 4 uM incubated for 4 days by DAPI staining based laser confocal microscopic analysis; assay type: functional, cell-based; conditions: time 4.0 day
SW1990 [6] = experiment: Effect on Rad51 gene expression in human SW1990 cells at 1 uM in presence of Olaparib by Q-PCR analysis; assay type: functional, cell-based
[7] = Toxicity in nude mouse xenografted with human SW1990 cells assessed as kidney damage at 15 mg/kg, ip administered for 28 days by H and E staining based fluorescence microscopic analysis; assay type: organism-based; conditions: in vivo, 672 h, time 28 day
SW1990 [8] = experiment: Induction of cell cycle arrest in human SW1990 cells assessed as accumulation of cells at G2/M phase at 4 uM incubated for 4 days by propidium iodide staining based flow cytometry (reference value: 5.89%); assay type: functional; conditions: time 4 day
SW1990 [9] = experiment: Induction of apoptosis in human SW1990 cells assessed as necrotic cells at 4 uM measured after 4 days by Annexin V-FITC/propidium iodide staining based flow cytometry (reference value: 2.45%); assay type: functional; conditions: time 4 day
SW1990 [10] = experiment: Induction of cell cycle arrest in human SW1990 cells assessed as accumulation of cells at S phase at 1 uM incubated for 4 days in presence of 3 uM Olaparib by propidium iodide staining based flow cytometry (reference value: 29.32%); assay type: functional; conditions: time 4 day
SW1990 [11] = experiment: Effect on CDK1 gene expression in human SW1990 cells at 4 uM by Q-PCR analysis; assay type: functional, cell-based
Mus musculus [12] = experiment: Upregulation of CCNB1 expression in nude mouse xenografted with human SW1990 cells at 45 mg/kg, ip measured after 4 days by Q-PCR analysis; assay type: functional, organism-based; conditions: time 4.0 day
SW1990 [13] = experiment: Upregulation of CDK1 expression in human SW1990 cells at 6 uM measured after 4 days by Western blot analysis; assay type: functional, cell-based; conditions: time 4.0 day
SW1990 [14] = experiment: Effect on CDK1 gene expression in human SW1990 cells at 6 uM by Q-PCR analysis; assay type: functional, cell-based
Mus musculus [15] = experiment: Upregulation of CCNB1 expression in nude mouse xenografted with human SW1990 cells at 45 mg/kg, ip measured after 4 days by Western blot analysis; assay type: functional, organism-based; conditions: time 4.0 day
SW1990 [16] = experiment: Effect on CDK6 gene expression in human SW1990 cells at 6 uM by Q-PCR analysis; assay type: functional, cell-based
Mus musculus [17] = experiment: Upregulation of CDC25B expression in nude mouse xenografted with human SW1990 cells at 45 mg/kg, ip measured after 4 days by Western blot analysis; assay type: functional, organism-based; conditions: time 4.0 day
SW1990 [18] = experiment: Effect on FOXO1 gene expression in human SW1990 cells at 6 uM by Q-PCR analysis; assay type: functional, cell-based
SW1990 [19] = experiment: Effect on CDC25A gene expression in human SW1990 cells at 6 uM by Q-PCR analysis; assay type: functional, cell-based
SW1990 [20] = experiment: Upregulation of E2F2 expression in human SW1990 cells at 6 uM measured after 4 days by Western blot analysis; assay type: functional, cell-based; conditions: time 4.0 day
SW1990 [21] = experiment: Upregulation of PARP1 expression in human SW1990 cells at 6 uM measured after 4 days by Western blot analysis; assay type: functional, cell-based; conditions: time 4.0 day
SW1990 [22] = experiment: Upregulation of CCND1 expression in human SW1990 cells at 6 uM measured after 4 days by Western blot analysis; assay type: functional, cell-based; conditions: time 4.0 day
SW1990 [23] = experiment: Effect on CCNB1 gene expression in human SW1990 cells at 1 to 2 uM by Q-PCR analysis; assay type: functional, cell-based; conditions: dose 1-2 µM
[24] = Toxicity in nude mouse xenografted with human SW1990 cells assessed as spleen damage at 30 mg/kg, ip administered for 28 days by H and E staining based fluorescence microscopic analysis; assay type: organism-based; conditions: in vivo, 672 h, time 28 day
SW1990 [25] = experiment: Induction of apoptosis in human SW1990 cells assessed as late apoptotic cells at 2 uM measured after 4 days by Annexin V-FITC and propidium iodide staining based flow cytometry (reference value: 7.23%); assay type: functional; conditions: time 4 day
Mus musculus [26] = experiment: Inhibition of E2F2 expression in nude mouse xenografted with human SW1990 cells at 30 mg/kg, ip measured after 4 days by Q-PCR analysis; assay type: functional, organism-based; conditions: time 4.0 day
SW1990 [27] = experiment: Antitumor activity against human SW1990 cells xenografted in nude mouse assessed as reduction in tumor size at 30 mg/kg, ip administered for 28 days and measured every 3 days by vernier caliper method; assay type: functional, organism-based; conditions: time 28.0 day
Mus musculus [28] = experiment: Inhibition of BRD4 expression in nude mouse xenografted with human SW1900 cells at 30 mg/kg, ip administered for 28 days by DAPI staining based laser confocal microscopic analysis; assay type: functional, organism-based; conditions: time 28.0 day
Mus musculus [29] = experiment: Inhibition of CCNB1 expression in nude mouse xenografted with human SW1990 cells at 30 mg/kg, ip measured after 4 days by Q-PCR analysis; assay type: functional, organism-based; conditions: time 4.0 day
Mus musculus [30] = experiment: Inhibition of homologous recombinant repair in nude mouse xenografted with human SW1990 cells assessed as reversal of olaparib-induced MDC1 expression at 30 mg/kg, ip measured after 4 days by Western blot analysis; assay type: functional, organism-based; conditions: time 4.0 day
SW1990 [31] = experiment: Inhibition of homologous recombinant repair in human SW1990 cells assessed as reversal of Olaparib-induced MDC1 expression at 1 to 2 uM after 4 days by Western blot analysis; assay type: functional, cell-based; conditions: dose 1-2 µM, time 4.0 day
CAPAN-1 = experiment: Antiproliferative activity against human CAPAN-1 cells assessed as inhibition of cell growth measured after 4 days by MTT assay; assay type: functional, cell-based; conditions: CAPAN-1, 96 h
SW1990 [32] = experiment: Effect on BRCA1 gene expression in human SW1990 cells at 1 to 2 uM by Q-PCR analysis; assay type: functional, cell-based; conditions: dose 1-2 µM
SW1990 [33] = experiment: Effect on CDC25B gene expression in human SW1990 cells at 1 to 2 uM by Q-PCR analysis; assay type: functional, cell-based; conditions: dose 1-2 µM
SW1990 [34] = experiment: Effect on ALDH1A1 gene expression in human SW1990 cells at 1 to 2 uM by Q-PCR analysis; assay type: functional, cell-based; conditions: dose 1-2 µM
SW1990 [35] = experiment: Effect on CDK1 to 2 gene expression in human SW1990 cells at 1 to 2 uM by Q-PCR analysis; assay type: functional, cell-based; conditions: dose 1-2 µM
SW1990 [36] = experiment: Induction of cell cycle arrest in human SW1990 cells assessed as accumulation of cells at G0/G1 phase at 1 uM incubated for 4 days by propidium iodide staining based flow cytometry (reference value: 64.79%); assay type: functional; conditions: time 4 day
SW1990 [37] = experiment: Inhibition of CCNB1 protein expression in human SW1990 cells at 1 to 2 uM measured after 4 days by Western blot analysis; assay type: functional, cell-based; conditions: dose 1-2 µM, time 4.0 day
Mus musculus [38] = experiment: Inhibition of homologous recombinant repair in nude mouse xenografted with human SW1990 cells assessed as reversal of olaparib-induced c-Myc expression at 30 mg/kg, ip measured after 4 days by Western blot analysis; assay type: functional, organism-based; conditions: time 4.0 day

Cc1sc2c(c1C)C(c1ccc(Cl)cc1)=N[C@@H](CC(=O)OC(C)(C)C)c1nnc(C)n1-2
Activity [1]: Non-Toxic
Activity (SW1990 [2]): Active
Activity (SW1990 [3]): Active
Activity (SW1990 [4]): Active
Activity (SW1990 [5]): Active
Activity (SW1990 [6]): Active
Activity [7]: Non-Toxic
Activity (SW1990 [8]): 5.51%
Activity (SW1990 [9]): 3.35%
Activity (SW1990 [10]): 19.33%
Activity (SW1990 [11]): Active

O=C(c1cc(Cc2n[nH]c(=O)c3ccccc23)ccc1F)N1CCN(C(=O)C2CC2)CC1 [OLAPARIB]
Activity (Mus musculus [12]): Active
Activity (SW1990 [13]): Active
Activity (SW1990 [14]): Active
Activity (Mus musculus [15]): Active
Activity (SW1990 [16]): Active
Activity (Mus musculus [17]): Active
Activity (SW1990 [18]): Active
Activity (SW1990 [19]): Active
Activity (SW1990 [20]): Active
Activity (SW1990 [21]): Active
Activity (SW1990 [22]): Active

Cc1noc(C)c1-c1ccc2c(c1)C(c1ccccc1)N(Cc1nc3c(C(N)=O)cccc3[nH]1)C(=O)N2C (centres undefined)
Activity (SW1990 [23]): Active
Activity [24]: Non-Toxic
Activity (SW1990 [25]): 39.5%
inhibition (Mus musculus [26]): Active
Activity (SW1990 [27]): Active
inhibition (Mus musculus [28]): Active
inhibition (Mus musculus [29]): Active
inhibition (Mus musculus [30]): Active
inhibition (SW1990 [31]): Active
IC50 (CAPAN-1): 1710 nM
Activity (SW1990 [32]): Active
Activity (SW1990 [33]): Active
Activity (SW1990 [34]): Active
Activity (SW1990 [35]): Active
Activity (SW1990 [36]): 74.9%
inhibition (SW1990 [37]): Active
inhibition (Mus musculus [38]): Active
